Laboratory results as given in US20230346820A1, “METHODS AND COMPOSITIONS FOR THE TREATMENT OF SARS-COV-2” (priority 2020, published 2023).
Counter-ions that a name gives are not always drawn. Like-named read-outs stand apart in the source and are kept apart here.

What was measured:
in vitro [1] = details: human
SARS-CoV-2 [2] = system: SARS-CoV-2
SARS-CoV-2 [3] = experiment: microbe, parasite or virus in culture
SARS-CoV-2 [4] = experiment: microbe, parasite or virus in culture; details: Severe acute respiratory syndrome coronavirus 2, Calu-3, 48 h, read-out: Calu-3 CoV-2 EC50 [μM]
SARS-CoV-2 [5] = details: Table 4
in vitro [6] = details: human; remark: listed apart in the source
[7] = HeLa-ACE2 Uninfected Tox CC50 [μM], Table 4, aggregated data, Geomean, n = 3
[8] = Severe acute respiratory syndrome coronavirus 2, HeLa-ACE2, read-out: HeLa-ACE2 CoV-2 EC50 [μM], Table 4, aggregated data, Geomean, n = 3

SMILES	CC50 (in vitro [1])	Calu3 SI CC50/CoV-2 EC50 (SARS-CoV-2 [2]; Table 4)	EC50 (SARS-CoV-2 [3]; Severe acute respiratory syndrome coronavirus 2, HeLa-ACE2, read-out: HeLa-ACE2 CoV-2 EC50 [μM])	EC50 (SARS-CoV-2 [4])	HeLa-ACE2 SI CC50/CoV-2 EC50 (SARS-CoV-2 [5])	CC50 at 48 h (in vitro [6])	CC50 (in vitro [1]; [7])	EC50 (SARS-CoV-2 [3]; [8])	CC50 (in vitro [6])	CC50 (in vitro [1]; HeLa-ACE2 Uninfected Tox CC50 [μM])	Calu3 SI CC50/CoV-2 EC50 (SARS-CoV-2 [2])
C[C@@H]1C[C@@H]([C@H](O)CC2CC(=O)NC(=O)C2)C(=O)[C@@H](C)C1 [Cycloheximide]	1.47 µM	12.50	0.634 µM	0.195 µM	2.32	2.44 µM					
CNC(=O)n1ccc2cc(Oc3ccnc(NC(=O)c4ccc(C5CCN(CCO)CC5)cc4)c3)c(OCCOC)cc21 [E-7090]		19.88		0.753 µM	8.01		21.2 µM	2.65 µM	15 µM		
O[C@@H]1CO[C@H]2[C@@H]1OC[C@H]2Oc1nc2nc(-c3ccc(-c4ccccc4)cc3)c(Cl)cc2[nH]1 [MK-8722]		>10		2.73 µM			37.4 µM		> 29.9 µM		
COCc1c(C(C)C)nc(C(C)C)c(/C=C/[C@@H](O)C[C@@H](O)CC(=O)O)c1-c1ccc(F)cc1 [cerivastatin (sodium salt)]		>85		0.348 µM			0.308 µM		> 29.9 µM		
CC(N)c1ccc(C(=O)Nc2ccncc2)cc1-c1ccc(F)cc1 (stereo not drawn) [AMA-0076]		>16		3.87 µM			35.8 µM	> 9.59 µM	> 29.9 µM		
NC(N)=Nc1ncc(Cl)c2ccc(-c3cccc(C(=O)O)c3)cc12 [UK-356202]		>15		1.92 µM			> 39.8 µM		> 29.9 µM		
CC1OC(O[C@H]2CC[C@@]3(C=O)[C@H](CC[C@@H]4[C@@H]3CC[C@]3(C)[C@@H](C5=CC(=O)OC5)CC[C@]43O)C2)C(O)C(O)C1O (stereo partly drawn) [Peruvoside (analog)]		5.61		0.251 µM	1.40		0.345 µM	0.246 µM	1.41 µM		
CC(=O)N1C[C@H](O)C[C@H]1C(=O)N[C@@H](CCCNC(=N)N)C(=O)c1nc2ccccc2s1 [RWJ-56423]		>24		1.23 µM			> 39.8 µM		> 29.9 µM		
CC(C)(O)c1ccccc1-c1ccc2[nH]c(/C=C/c3ccc(C(F)(F)F)cc3)nc2c1 [Mavatrep]		5.50		2.66 µM			22.5 µM	> 9.59 µM	14.6 µM		
CCCCCCCC/C=C/CCCCCCCC(=O)OC[C@H]1O[C@@H](n2ccc(N)nc2=O)C(F)(F)[C@@H]1O [Gemcitabine elaidate]		>92		0.324 µM			6.01 µM	> 9.59 µM	> 29.9 µM		
C#C[C@]1(O)CC[C@H]2[C@@H]3CCc4cc(OS(=O)(=O)C(C)C)ccc4[C@H]3CC[C@@]21C [ethinyl estradiol sulfonate]		5.59		1.23 µM			20.4 µM	> 9.59 µM	6.86 µM		
N#Cc1cccc(C(C(=O)NCC(c2ccccc2)c2ccccc2)N(CCc2c[nH]cn2)C(=O)c2ccccc2C(=O)c2ccccc2)c1 (stereo not drawn) [GENZ-29155]		>6.41		> 4.66 µM	4.01		> 38.5 µM		> 29.9 µM		
COC1CC(OC2CCC3(C=O)[C@H]4CCC5(C)C(C6=CC(=O)OC6)CCC5(O)[C@@H]4CCC3(O)C2)OC(C)C1O (stereo partly drawn) [CYMARINE]		43.53		0.135 µM	1.21		0.287 µM	0.237 µM	5.87 µM		
Cn1c(C#N)ccc1-c1ccc2c(c1)C(C)(C)OC(=S)N2 [tanaproget]		7.99		2.44 µM	0.91		0.128 µM	0.141 µM	19.3 µM		
N=C(N)Nc1ccc(C(=O)Oc2ccc(S(N)(=O)=O)cc2)cc1 [Ono-3307]		>16		1.6 µM			> 39.8 µM		> 29.9 µM		
Sc1ncnc2nc[nH]c12 [Mercaptopurine]		6.95		0.197 µM	5.51		19.6 µM	3.57 µM	1.37 µM		
COC(=O)[C@@]12OC[C@]34[C@H]([C@@H](O)[C@@H]1O)[C@@]1(C)CC(=O)C(O)=C(C)[C@@H]1C[C@H]3OC(=O)[C@H](OC(=O)/C=C(\C)C(C)C)[C@@H]24 [Bruceantin]		50.22		0.019 µM	20.18		0.117 µM	0.006 µM	0.973 µM		
CCCCCCC1C(=O)O[C@H](C)[C@H](NC(=O)c2cccc(NC=O)c2O)C(=O)O[C@@H](C)[C@@H]1OC(=O)CC(C)C (stereo partly drawn) [Antimycin A]		22.00		0.028 µM			> 39.8 µM	> 9.59 µM	0.608 µM		
CC(=O)O[C@H]1C[C@H](O[C@H]2[C@@H](O)C[C@H](O[C@H]3[C@@H](O)C[C@H](O[C@H]4CC[C@@]5(C)[C@H](CC[C@@H]6[C@@H]5C[C@@H](O)[C@]5(C)[C@@H](C7=CC(=O)OC7)CC[C@]65O)C4)O[C@@H]3C)O[C@@H]2C)O[C@H](C)[C@H]1O[C@@H]1O[C@H](CO)[C@@H](O)[C@H](O)[C@H]1O [LANATOSIDE]		31.97		0.194 µM	6.56		1.35 µM		6.21 µM		
CC[C@@H]1/C=C/C=C/C[C@H](C)[C@@H](O)[C@](C)(O)C(=O)[C@H](C)[C@@H](O)[C@H](C)C(=O)[C@H](C)[C@@H](O)[C@H](C)/C=C/C(=O)O[C@H]2[C@@H](C)[C@@H](CC1)O[C@@]1(CC[C@@H](C)[C@@H](C[C@H](C)O)O1)[C@@H]2C [OLIGOMYCINA]		>4000		0.007 µM			36 µM	> 9.59 µM	> 29.9 µM		
O=c1[nH]ccc2cc(OC3CCNCC3)ccc12 [SAR-407899]		>7.77		> 3.85 µM	4.03		> 38.7 µM		> 29.9 µM		
CCc1ccc(C2=CC(C)(C)Sc3ccc(C#Cc4ccc(C(=O)O)cc4)cc32)cc1 [AGN-194310]				0.597 µM					> 29.9 µM	> 39.8 µM	>50
CC(=N)N1CCC(Oc2ccc(N(Cc3ccc4ccc(C(=N)N)cc4c3)S(=O)(=O)CC(=O)O)cc2)CC1 [YM 60828]		>9		3.38 µM			> 39.8 µM		> 29.9 µM		
O=C(c1ccccc1)c1cccc(NC(=O)c2ccn3c2CSC3c2cccnc2)c1 (stereo not drawn) [TULOPAFANT]		5.01		2.92 µM			36.6 µM	> 9.59 µM	14.6 µM		
O=C(Nc1ccc(Cl)c(S(=O)(=O)N2CCNCC2)c1O)Nc1cccc(F)c1Cl [Elubrixitosylate]		>4.28		6.91 µM	4.35		> 39.8 µM		> 29.6 µM		
CC/C(=C(/c1ccc(/C=C/C(=O)O)cc1)c1ccc2[nH]ncc2c1)c1ccc(F)cc1Cl [ARN-810]		21.60		1.1 µM			11 µM		23.8 µM		
CC(C)(C)c1ccc(CSc2cnn(C(C)(C)C)c(=O)c2Cl)cc1 [PYRIDABEN]		43.89		0.205 µM			> 39.8 µM		8.99 µM		
CSc1ccc(CN2CCCC(Nc3ccc4[nH]ncc4c3)C2)cc1 (stereo not drawn) [INS-117548]		>8.42		> 3.55 µM	4.15		> 39.8 µM		> 29.9 µM		
